Counter-ions that a name gives are not always drawn.
Columns and labels:
[1] = target: 5-HT1 receptor; experiment: Affinity for the 5-HT1 receptor (3H-serotonin binding, calf hippocampus membranes); details: calf hippocampus membrane preparations
Procedure: The values indicated are data which were determined from receptor binding studies using calf hippocampus membrane preparations. The radiolabelled ligand used for this purpose was ^3 H-serotonin. In the binding tests under 1) and 2), IC50 values are determined which indicate at which concentration of test substance 50% of the binding of the radioligand is displaced. Taking into account the dissociation constants and the concentration of radioligand, the inhibition constants Ki are calculated from this.

[2] = target: T1, 5-HT1A receptors (Bos taurus, UniProt F6Q2H9); experiment: Affinity for the 5-HT1A receptor (3H-ipsapirone binding, calf hippocampus membranes)
T1 construct: measured in calf hippocampus membranes; from tissue; host or cells: calf hippocampus membranes
T1 sequence (F6Q2H9 1-422): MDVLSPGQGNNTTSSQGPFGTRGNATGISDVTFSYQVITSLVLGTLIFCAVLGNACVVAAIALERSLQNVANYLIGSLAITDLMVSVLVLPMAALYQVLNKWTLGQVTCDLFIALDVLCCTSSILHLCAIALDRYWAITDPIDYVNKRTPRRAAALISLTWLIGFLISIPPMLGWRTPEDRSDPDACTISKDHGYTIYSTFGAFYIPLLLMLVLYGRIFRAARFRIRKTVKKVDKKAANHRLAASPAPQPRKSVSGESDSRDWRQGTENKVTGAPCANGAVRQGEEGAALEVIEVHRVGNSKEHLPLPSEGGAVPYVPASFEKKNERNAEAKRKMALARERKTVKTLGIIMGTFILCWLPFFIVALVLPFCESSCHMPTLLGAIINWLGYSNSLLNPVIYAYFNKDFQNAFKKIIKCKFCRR
Procedure: 2.) Affinity for the 5-HT1A receptor [W. U. Dompert et al., Naunyn-Schmiedeberg's Arch Pharmacol. (1985), 328, 467-470].
In this test, the binding of ^3 H-ipsapirone to 5-HT1A receptors is measured in calf hippocampus membranes.
In the binding tests under 1) and 2), IC50 values are determined which indicate at which concentration of test substance 50% of the binding of the radioligand is displaced. Taking into account the dissociation constants and the concentration of radioligand, the inhibition constants Ki are calculated from this.

[3] = test system: permanent focal cerebral ischaemia (MCA-O); experiment: Permanent focal cerebral ischaemia (middle cerebral artery occlusion, MCA-O) in rats; type: in vivo; details: rat, continuous infusion 4 hours after occlusion, assessed 7 days after operation
Source text: Animal model: permanent focal cerebral ischaemia ("middle cerebral artery occlusion"=MCA-O). MCA occlusion in rodents is a widely accepted animal model of stroke. Reference: Bederson, J. B. et al., Stroke, 17:472-476 (1986).
In order to produce permanent focal cerebral ischaemia, the left medial cerebral artery in rats is occluded by electrocoagulation. The resulting infarct volume in cortical (subcortical) regions which are supplied by the medial cerebral artery is used as a measure of the extent of the stroke-induced neuronal damage. Administration of substance: after occlusion as a continuous i.v. infusion (4 hours) of the test substance, beginning directly after operation. The animals are sacrificed for assessment 7 days after operation.

Row | SMILES | Ki [1] [nM] | Ki [2] [nM] | % Reduction of the infarct volume ([3]; 0.001 mg/kg i.v.) [%] | % Reduction of the infarct volume ([3]; 0.01 mg/kg i.v.) [%] | % Reduction of the infarct volume ([3]; 0.1 mg/kg i.v.) [%] | % Reduction of the infarct volume ([3]; 0.003 mg/kg i.v.) [%]
1 | CC(C)(Cl)COc1cccc2c1OC(CNCCCCN1C(=O)c3ccccc3S1(=O)=O)CC2 (racemic) [Example 4] | 2.8 |  |  |  |  | 
2 | CC1(C)Cc2ccc3c(c2O1)OC(CNCCCCN1C(=O)c2ccccc2S1(=O)=O)CC3 (racemic) [Example 5] | 0.5 |  |  |  |  | 
3 | CC(C)Oc1cccc2c1OC(CNCCCCN1C(=O)c3ccccc3S1(=O)=O)CC2 (single isomer, unassigned) [Example 2] |  | 0.5 | 36 | 48 | 32 | 
4 | CC(C)(Cl)COc1cccc2c1OC(CNCCCCN1C(=O)c3ccccc3S1(=O)=O)CC2 (single isomer, unassigned) [Example 3] |  | 1.8 | 37 | 47 |  | 34
5 | CC1(C)Cc2ccc3c(c2O1)OC(CNCCCCN1C(=O)c2ccccc2S1(=O)=O)CC3 (single isomer, unassigned) [Example 6] |  | 0.9 | 41 | 41 | 38 | 
6 | CC(C)Oc1cccc2c1OC(CNCCCCN1C(=O)c3ccccc3S1(=O)=O)CC2 (stereo not drawn) [Example 1, 2-(N-(4-(1,1-Dioxido-3-oxo-2,3-dihydro-benzisothiazol-2-yl)butyl)amino)methyl-8-isopropoxy-chroman oxalate] | 1.1 |  |  |  |  | 

— US5942529A, “Benzisothiazolyl-substituted aminomethylchromans” (Bayer Aktiengesellschaft, priority 1995, dated 1999)
